These results are taken from paper PMC7957705 (Molecules, 2021).

Read-outs that look alike come from different tables or passages of the source. Where a SMILES comes first, the peptide text is derived from it. Bridges are numbered along the chain shown (N, C = ends). Triazole bridges read from a SMILES are 1,4-linked. Where no end group is shown, it is not given here. [ ]: non-standard residue; d: D form. The star is where a group is joined. Benzoyl(4-guanidino) = N=C(N)Nc1ccc(C(=O)*)cc1; Gua = N-terminal guanidino group, N=C(N)*; Aha = [N-]=[N+]=NCC[C@H](N)C(=O)O; β3hV = CC(C)[C@H](N)CC(=O)O; Pra = C#CC[C@H](N)C(=O)O

One data set concerns treated animals. The settings on record: cited from earlier work.
Data set [1] has as its target T1, human MCH-R1 (Homo sapiens, UniProt Q99705).
T1 construct: expressed in transfected cells
The data set is described as follows: MCH-induced cytosolic Ca2+ ion mobilization, antagonist effect. The format is cell-based. Particulars: for Ki: antagonism of MCH-induced cytosolic Ca2+ mobilization, read-out: Ki (functionality, antagonism at MCH-R1). The protocol: The functional assay was run onto cells expressing the hMCH-R1 receptor, as described in Wang et al.. In brief, the cells are suspended in DMEM buffer (Invitrogen), then distributed in microplates at a density of 4.104 cells/well. The fluorescent probe (Fluo4 Direct, Invitrogen) mixed with probenecid in Hanks’ Balanced Salt solution (HBSS) (Invitrogen) complemented with 20 mM HEPES (Invitrogen) (pH 7.4) is then added into each well and equilibrated with the cells for 60 min at 37 °C, then 15 min at 22 °C. Then, the assay plates are positioned in a microplate reader (CellLux, PerkinElmer) which is used for the addition of the test compound, reference agonist or HBSS buffer (basal control), and the measurements of changes in fluorescence intensity, which varies proportionally to the free cytosolic Ca^2+ ion concentration. For stimulated control measurements, MCH at 300 nM is added in separate assay wells. The results are expressed as a percentage of the control response to 300 nM MCH. The standard reference agonist is MCH, which is tested in each experiment at several concentrations to generate a concentration-response curve from which its EC50 value is calculated. For the antagonist effect, the results are expressed as a percentage inhibition of the control response to 30 nM MCH, which was added to all tested wells and controls 5 min after the candidate products.

Data set [2] concerns the target T1, human MCH-R1. The data set is described as follows: Binding displacement of [125I]-[Phe13,Tyr19]-MCH at membranes expressing human MCH-R1. The protocol:
Stable cell lines were obligatory for all receptor programs. We cloned the human receptor and established the cell line as previously described. In brief, HEK293 (HEK) cells were grown in Dulbecco’s Modified Eagle medium (DMEM) supplemented with 10% fetal calf serum, 2 mM glutamine, 100 IU/mL penicillin and […] streptomycin. They were seeded at 5 × 10^6 cells in T75 cm^2 culture flasks. One day later, they were transfected with […] of the pcDNA3.1 (Invitrogen, Groningen, The Netherlands) containing the human MCH-R1 using lipofectamine (Life Technologies, Cergy Pontoise, France), as previously described. One day later, cells were trypsinized, resuspended in a complete DMEM medium containing […] of geneticin and seeded at different dilutions in 96-well plates which were kept for 2 to 3 weeks in a humidified CO2 incubator. At the end of the selection period, isolated clones were picked up, amplified, and further characterized by cyclic AMP experiments. For each cell line, one positive clone was subcloned before being used for all of the cyclic AMP, [^35S]-GTPγS and receptor binding experiments necessary to characterize them. The stable HEK293 cell line expressing the human MCH-R1 was HEK-hMCH-R1.
Membrane preparations were classically made as previously described. In brief, the HEK-hMCH-R cell line was grown to confluency, harvested in PBS buffer containing 2 mM EDTA and centrifuged at 10,000× g for 5 min (4°C). The resulting pellet was suspended in 20 mM Hepes buffer (pH 7.5), containing 5 mM EGTA and homogenized using a Kinematica polytron. The homogenate was then centrifuged (95,000× g, 30 min, 4 °C) and the resulting pellet was suspended in 50 mM HEPES buffer (pH 7.5), containing 10 mM MgCl2 and 2 mM EGTA. Aliquots of membrane preparations were stored at −80 °C until use. Binding has been described in numerous publications and the test was based on Mac Donald et al.’s description. […] Nonspecific binding is determined in the presence of 0.1 μM MCH. […] The filters are dried and then counted for radioactivity in a scintillation counter (Topcount, Packard) using a scintillation cocktail (Microscint 0, Packard). The results are expressed as percentage inhibition of the control radioligand specific binding. The standard reference compound is MCH, which was tested in each experiment at 8 concentrations to obtain a competition curve from which its IC50 is calculated. The high level of assay robustness and reproducibility of each control monitored over several decades (internal data base, Eurofins) and included in every assay ensure results’ reliability even when performed only twice. […]

Data set [3] in a line: Stability and metabolite identification on rat hepatocytes. In kind it is in vitro ADME. Particulars: 20 µM, 5 h. As to the method: (§1) The stability of the compound was studied on hepatocyte cultures from Wistar rats and CD1 mice. The compound was incubated at 20 µM in the presence of 1.106 cells/mL for 5 h. The incubation was then stopped with acetonitrile (v/v) and the supernatant, after a brief centrifugation (2500 rpm, 5 min 4 °C) was submitted to LC-MS analysis, using a THERMO […] coupled to a Waters Acquity UPLC System equipped with a Waters Acquity UPLC C18 100 × 2.1 mm 1.7 µm column.

Data set [4] can be described thus: Stability and metabolite identification on mouse hepatocytes. In kind it is in vitro ADME. Particulars: 20 µM, 5 h. As to the method: as §1
Data set [5] is classed as in vitro ADME. Particulars: for half-life: plasma. The protocol: Plasmas from 3 species (including commercially available human healthy donors) were adjusted to pH 7.4 if necessary. Incubations were performed at a concentration of 1 µM of the compound at 37 °C (in the presence of a final concentration of DMSO of 2.5% v/v. The incubations were stopped at 0, 15, 30, 60 and 120 min by methanol. Each time point was run in sextuplets. The sampling plates were then centrifuged (2500 rpm, 45 min, 4 °C) and the supernatants pooled. Samples were analyzed for parent compound by LC-MS/MS. The percentage of parent compound remaining at each time point relative to the 0 min sample is then calculated from LC-MS/MS peak area ratios. Then, the stability in plasma was evaluated by incubating human, rat or mouse plasma with the compound(s) as follows: the product (0.1 µM in TRIS buffer pH 7.4 0.1% BSA) was incubated with the plasma at 37 °C. The disappearance of the product was measured at 15, 45, 120, 240 and 300 min by mass spectrometry. Incubations were carried out in a robot Star (Hamilton France, Villebon-sur-Yvette, France). At each sampling time, 50 µL of the reaction medium was removed and diluted with 100 µL of acetonitrile. After centrifugation (20 min at + 4 °C, 4000 rpm), 75 µL of the supernatants was transferred into a 384 well injection plate. Ten microliters were injected onto UPLC coupled with a XEVO TQS mass spectrometer system (Waters, Milford, MA, USA). The unchanged product is quantified using a reference sample (0.1 µM) prepared during the incubation process. A second reference sample at 0.01 µM is prepared in the same conditions to verify the linearity of the detection method. The peak height (or area) is measured to calculate the half-life of the compound.

In data set [6] the target is T1, human MCH-R1. Details: method as in PMID 19619599, PMID 23267345. The settings on record: cited from earlier work.
The next data set is described as follows: human plasma. The settings on record: 37 °C, up to 300 min.
The next data set can be described thus: rat plasma. Particulars: 37 °C, up to 300 min.

T1 sequence (Q99705 whole entry): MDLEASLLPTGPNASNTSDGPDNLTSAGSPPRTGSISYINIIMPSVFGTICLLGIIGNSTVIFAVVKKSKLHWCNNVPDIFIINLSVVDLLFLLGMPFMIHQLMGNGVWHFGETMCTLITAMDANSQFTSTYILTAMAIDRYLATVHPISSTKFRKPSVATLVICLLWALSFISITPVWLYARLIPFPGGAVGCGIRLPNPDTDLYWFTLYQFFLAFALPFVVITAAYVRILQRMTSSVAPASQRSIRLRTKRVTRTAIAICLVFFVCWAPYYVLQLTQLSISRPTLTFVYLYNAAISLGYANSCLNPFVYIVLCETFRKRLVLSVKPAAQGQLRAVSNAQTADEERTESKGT

Take `CN(C)c1nc(NC2CCC(NCCc3ccc(Br)cc3OC(F)(F)F)CC2)nc2ccccc12` (stereo not drawn) [ATC0065]: the behavioral concerns entry in the data set on treated animals was “some behavioral concerns have been reported”.

Turning to `CSCC[C@H](NC(=O)[C@H](C)NC(=O)c1ccc(NC(=N)N)cc1)C(=O)N[C@@H](CC(C)C)C(=O)N[C@@H](CCCNC(=N)N)C(=O)N[C@H](C(=O)N[C@@H](CCCNC(=N)N)C(=O)N1CCC[C@H]1C(=O)N[C@@H](C)C(=O)N[C@@H](Cc1c[nH]c2ccccc12)C(=O)O)C(C)C` [GPS13670] ({Benzoyl(4-guanidino)}-AMLRVRPAW-OH), the Ki at human MCH-R1 [1] was determined as 30 nM. In addition, at human MCH-R1 [2], the “affinity at the MCH-R1 receptor (in words)” value is reported as “poor binders”.

Take `CSCC[C@@H]1NC(=O)[C@@H](NC(=O)c2ccc(NC(=N)N)cc2)CCn2cc(nn2)C[C@@H](C(=O)N[C@@H](Cc2c[nH]c3ccccc23)C(=O)O)NC(=O)[C@@H]2CCCN2C(=O)[C@H](CCCNC(=N)N)NC(=O)C[C@H](C(C)C)NC(=O)[C@H](CCCNC(=N)N)NC(=O)[C@H](CC(C)C)NC1=O` [GPS15290, pGua-[N3-hAla-MLR-βhVal-RP-hPra]-W-OH] ({Benzoyl(4-guanidino)}-[Aha]MLR[β3hV]RP[Pra]W-OH; triazole 1-8): on human MCH-R1 [1], the “antagonistic functionality (in words)” value was “high picomolar range”. Besides, the Ki at human MCH-R1 [1] worked out at 0.028 nM. Also, the “affinity at the MCH-R1 receptor (in words)” value on human MCH-R1 [2] is given as “superior affinity”. In addition, the stability on hepatocytes result in data set [3] and in data set [4] was “mild stability” in each case. Further, the “stability in plasma (in words)” value in data set [5] (human), in [5] (mouse) and in data set [5] (rat) was “most stable compound” throughout. The half-life was at least 5 h in data set [5] (human), 2.88 ± 0.15 h in data set [5] (mouse) and at least 5 h in [5] (rat). For the same compound, the “initial dose remaining after incubation in mice plasma” value in [5] (mouse) is around 20%.

With `COc1cc(-n2cnc3cc(-c4ccc(Cl)cc4)sc3c2=O)ccc1OCCN1CCCC1` [GW803430], the behavioral concerns result in the data set with treated animals (in vivo) was “some behavioral concerns have been reported”.

Regarding `CSCC[C@@H]1NC(=O)[C@@H](NC(=O)c2ccc(NC(=N)N)cc2)CSSC[C@@H](C(=O)N[C@@H](Cc2c[nH]c3ccccc23)C(=O)O)NC(=O)[C@@H]2CCCN2C(=O)[C@H](CCCNC(=N)N)NC(=O)[C@H](Cc2ccc(O)cc2)NC(=O)[C@H](C(C)C)NC(=O)[C@H](CCCNC(=N)N)NC(=O)[C@H](CC(C)C)NC1=O` [S38151, p-guanidinobenzoyl-Des-Gly(10)-MCH(7-17), reference compound] ({Benzoyl(4-guanidino)}-CMLRVYRPCW-OH; disulfide 1-9; N-terminus and C-terminus assumed), the Ki at human MCH-R1 [1] is 5 nM. At human MCH-R1 [6], the “affinity at the human MCH-R1 receptor” value is reported as “low nanomolar range”. Besides, the half-life in data set [5] (human, pH 7.4) was 0.233 ± 0.0167 h; in data set [5] (mouse, pH 7.4) it was 0.383 ± 0.03 h; in data set [5] (rat, pH 7.4), 1 ± 0.05 h.

On to `COCC1=C(C(=O)OC)[C@H](c2ccc(F)c(F)c2)N(C(=O)NCCCN2CCC(c3cccc(NC(C)=O)c3)CC2)C(=O)N1` [SNAP-7941], for which the behavioral concerns entry in the data set on treated animals was “some behavioral concerns have been reported”.

For the compound “GPS11373: S-S bridge: Gua-Cys-Met-Leu-Arg-Val-Arg-Pro-Cys-Trp (Gua-CMLRVRPCW; disulfide 1-8 (inferred))”, the binding affinity constant in the data set with human MCH-R1 [2] (Table 1, S-S bridge pseudopeptides, 2 × 2 independent duplicates, read-out: Km) was 100 nM.

Take “Gua-N3-hAla-Nle-Leu-Arg-βhVal-Arg-Pro-hPra-Trp”: the not cleaved result is “not metabolized at all, 100% of the initial dose found at 300 (5 h)” in “human plasma” and “not metabolized at all, 100% of the initial dose found at 300 (5 h)” in the data set “rat plasma”.

Take pGua-[N3-hAla-MLR-βhVal-RP-hPra]-W-OH: the not cleaved result in the data set “human plasma” was “not metabolized at all, 100% of the initial dose found at 300 (5 h)”; in the data set “rat plasma” it was “not metabolized at all, 100% of the initial dose found at 300 (5 h)”.
